As usually defined, the IC50 is the midpoint of a concentration-inhibition curve. Usually inhibition stands for the drop in the measured response relative to a control, in per cent.

Eleven compounds from patent publication US20230150951A1, “2,5- OR 2,6-DISUBSTITUTED HYDROQUINONE DERIVATIVES WITH AT LEAST ONE CARBOXY, SULFO OR AMIDO GROUP USEFUL AS MEDICAMENTS” (OM PHARMA SA, priority 2020, published 2023) can be followed below.

Common to all, as to format: cell-based
The target in one assay is T1, FGF-1 (Homo sapiens, UniProt P05230).
T1 construct: purchased Peprotech 100-17A
In words: FGF-1 induced sprouting of HUVEC, spheroid-based cellular angiogenesis assay. To be noted: FGF-1 25 ng/mL preincubated with compound, 24 h. As for the experimental part: (§1) Aim of this in vitro method is to assess compounds effects on FGF-2, FGF-1, or VEGF-A induced sprouting of human umbilical vein endothelial cells (HUVEC) in the spheroid-based cellular angiogenesis assay. Before adding the growth factors to the cells, they were preincubated with the compound. Sunitinib was tested as a control (without preincubation).
(§2) IC50 values determined for the tested compounds are expressed in microM [μM] and the values for the inhibition of FGF-1, FGF2 and VEGF-A induced growth (sprouting) are listed after each compound in the examples after chemical characterization.
(§3) Sprouting test was performed on the compounds dissolved in DMSO to reach 100-fold concentrated stock solutions and dissolved in culture media. Sunitinib as reference compound was provided by ProQinase GmbH. Growth factors were purchased from rhFGF-basic (FGF-2), Peprotech, New Jersey, USA, #100-18C, Lot #0415571; rhFGF-acidic (FGF-1), Peprotech, New Jersey, USA, #100-17A, Lot #031207; hVEGF-A165 (ProQinase GmbH, Freiburg, Germany; 05.02.2010) were used for stimulation of HUVEC cells growth.
(§4) Test system: Endothelial cells from human umbilical vein (HUVEC) from pooled donors were stored frozen with 70% medium, 20% FCS, 10% DMSO at about 1×10^6 cells/ampoule. HUVEC cells, primary human umbilical vein endothelial cells (PromoCell, Heidelberg, Germany), were used after passage 3 to 4. Morphology of the cells are adherent, cobblestone-like growing as monolayer and were cultured in endothelial cell growth and basal medium (ECGM/ECBM, PromoCell). The subculture was split 1:3; every 3-5 days, seed out at ca. 1×10^4 cells/cm^2 and incubated at 37° C. with 5% CO2 with a doubling time 24-48 hours
(§5) Dilution of test compounds: 100× concentrated solutions (concerning to the final assay concentrations) of each test compound were prepared with the appropriate solvent (in DMSO or in water). These 100×compound solutions were further diluted in endothelial cell growth and basal medium (ECBM) 1:7.5 to get a 13.33× concentrated solution. 75 μl of the 13.33×solution was subsequently mixed with 25 μl of 40× concentrated stimulus (solved in ECBM), resulting in a 10×concentrated stimulus/compound mixture. This mixture (100 μl) was incubated for 30 min at 37° C. and then added to 900 μl gel, containing the HUVEC spheroids (resulting in the final assay concentration).
(§6) Test method: the experiments were pursued in modification of the originally published protocol (Korff and Augustin: J Cell Sci 112: 3249-58, 1999). In brief, spheroids were prepared as described (Korff and Augustin: J Cell Biol 143: 1341-52, 1998) by pipetting 400 HUVEC in a hanging drop on plastic dishes to allow overnight spheroid aggregation. 50 HUVEC spheroids were then seeded in 0.9 ml of a collagen gel and pipetted into individual wells of a 24 well plate to allow polymerization. The test compounds were preincubated with the growth factors (FGF-1, FGF-2 or VEGF-A final concentration 25 ng/mL) in a 10-fold concentrated solution and subsequently, 100 μl of this solution was added on top of the polymerized gel. All compounds were diluted in solvent (DMSO or water) as 100×stocks first (which means 100×stocks of each final assay concentration were prepared in solvent). Subsequently, these stocks were further diluted in medium (resulting in the 13.33×stocks of each final assay concentration) with final concentrations tested: 100, 50, 25, 12.5, 6.25, 3.13 and 1.56×10^−6 M). Plates were incubated at 37° C. for 24 hours and fixed by adding 4% PFA (Roth, Karlsruhe, Germany).
(§7) Quantification of growth factor inhibition: sprouting intensity of HUVEC spheroids treated with the growth factor and the inhibitors were quantitated by an image analysis system determining the cumulative sprout length per spheroid (CSL).

Another assay addresses T2, FGF-2 (Homo sapiens, UniProt P09038).
T2 construct: purchased Peprotech 100-18C
In words: FGF-2 induced sprouting of HUVEC, spheroid-based cellular angiogenesis assay. To be noted: FGF-2 25 ng/mL preincubated with compound, 24 h. The protocol:
as §1, §2, §3, §4, §5, §6, §7

The target of another assay is T3, VEGFR-2 (Homo sapiens, UniProt P35968).
T3 construct: endogenous in cells; host or cells: primary HUVEC
In words: VEGF-165 induced phosphorylation of VEGF-Receptor on HUVEC. To be noted: HUVEC preincubated 60 min, VEGF165 25 ng/mL 2 min; read-out: VEGFR-Phosphorylation inhibition IC50. As for the experimental part:
Cell culture: Primary human umbilical vein endothelial cells (HUVECs) were routinely cultured in 0.1% gelatin pre-coated flasks or dishes, up to passage 6. […]
Rabbit primary antibodies for VEGFR-2, p-Tyr1175 were acquired from Cell Signaling Technology (Leiden, The Netherlands). Phospho-VEGFR-2 (Tyr1175) Sandwich ELISA Kit was from Cell Signaling Technology.
[…] Western blot analysis was performed using anti-phospho-VEGFR-2 antibody and total VEGFR-2 was used as a loading control after membrane stripping.
Inhibition of VEGFR-2-phosphorylation results are expressed as IC50 in microM [μM] versus VEGF-treated HUVECs control without inhibitory compound.

For assay [1], the system named is Human neutrophils. In words: Inhibition of ROS production in human neutrophils (isoluminol chemiluminescence). To be noted: fMLP+TNF-α stimulated PMN; for inhibition at 0.3 µM / IC50: Homo sapiens, Neutrophil. From the text: NADPH oxidase, located in the plasma membrane and in the membranes of specific granules, produces superoxide anions from which other ROS, such as hydrogen peroxide, singlet oxygen, hypochlorite, and active hydroxyl radicals. ROS are released into the surrounding medium or into a membrane-enclosed subcellular organelle. One quick and sensitive method for measuring the generation of these metabolites is chemiluminescence (CL). Isoluminol amplified CL technique, is very sensitive and widely used to study respiratory burst (mainly extracellular production of ROS) induced in neutrophils.
Human neutrophils were isolated from buffy coats which obtained from healthy donors. The isolated neutrophils (3×10^6/ml) were suspended in Hanks' Balanced Salt Solution (HBSS) with Calcium and Magnesium. Neutrophils were pre-incubated with the compounds at different concentrations (0.1, 0.3, 1, 3 and 10 μM) for 30 min at 37° C. The black 96-well cell culture plates were coated with human fibrinogen (0.25 mg/ml in PBS), and incubated overnight at 4° C. or 2 hr at 37° C. Then the plates were washed with endotoxin-free PBS. The neutrophils were incubated (priming) with TNF-α (20 ng/ml) for 10 minutes at 37° C. Thereupon the 75 μl of cell suspension and 75 μl (Isoluminol+HRP solution) were added to each well. The chemiluminescence was recorded (every 25 sec for 250 sec) after fMLP (1 μM) activation using a Multilabel Reader victor3 (Perkin Elmer, USA). Background values, defined as the mean chemiluminescent values of isoluminol diluted in HBSS, were subtracted from all readings (CPS, count per second). The assays were done in duplicate or triplicate.

Assay [2] concerns Human neutrophils. In words: Neutrophil adhesion under static conditions. To be noted: fMLP-stimulated adhesion to fibrinogen; method: 40 μM and 80 μM, concentration of the value not stated. The protocol: Human neutrophils obtained from buffy coats of healthy donors were suspended at 3×10^6/ml in adhesion buffer (PBS containing 1 mM CaCl2)/MgCl2 and 10% FCS, pH 7.2). Neutrophils were preincubated for 30 min at 37° C. with 40 μM and 80 μM of the compounds.
Adhesion assays were performed on 18-well glass slides coated for 18 h at 4° C. with human fibrinogen (20 μg/well in endotoxin-free PBS); 20 μl of cell suspension were added to each well and stimulated for 1 min at 37° C. with 5 μl of fMLP 1 nM final concentration. After washing, adherent cells were fixed in glutaraldehyde 1.5% in PBS and counted by computer-assisted enumeration. Statistical analysis was performed by calculating mean and standard deviation (SD); significance was calculated by unpaired t-test. All statistical analyses were performed using GraphPad Prism 6 (GraphPad Software).

T1 sequence (P05230 whole entry): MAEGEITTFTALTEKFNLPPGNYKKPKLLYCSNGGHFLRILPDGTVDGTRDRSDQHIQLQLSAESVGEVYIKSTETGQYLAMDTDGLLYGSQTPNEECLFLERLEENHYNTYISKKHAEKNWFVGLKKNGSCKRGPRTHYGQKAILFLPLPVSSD
T2 sequence (P09038 134-288): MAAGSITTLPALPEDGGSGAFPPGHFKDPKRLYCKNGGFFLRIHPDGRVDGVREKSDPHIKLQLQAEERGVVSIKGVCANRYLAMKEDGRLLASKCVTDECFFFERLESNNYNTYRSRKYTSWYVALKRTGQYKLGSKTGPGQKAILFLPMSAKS
T3 sequence (P35968 20-1356): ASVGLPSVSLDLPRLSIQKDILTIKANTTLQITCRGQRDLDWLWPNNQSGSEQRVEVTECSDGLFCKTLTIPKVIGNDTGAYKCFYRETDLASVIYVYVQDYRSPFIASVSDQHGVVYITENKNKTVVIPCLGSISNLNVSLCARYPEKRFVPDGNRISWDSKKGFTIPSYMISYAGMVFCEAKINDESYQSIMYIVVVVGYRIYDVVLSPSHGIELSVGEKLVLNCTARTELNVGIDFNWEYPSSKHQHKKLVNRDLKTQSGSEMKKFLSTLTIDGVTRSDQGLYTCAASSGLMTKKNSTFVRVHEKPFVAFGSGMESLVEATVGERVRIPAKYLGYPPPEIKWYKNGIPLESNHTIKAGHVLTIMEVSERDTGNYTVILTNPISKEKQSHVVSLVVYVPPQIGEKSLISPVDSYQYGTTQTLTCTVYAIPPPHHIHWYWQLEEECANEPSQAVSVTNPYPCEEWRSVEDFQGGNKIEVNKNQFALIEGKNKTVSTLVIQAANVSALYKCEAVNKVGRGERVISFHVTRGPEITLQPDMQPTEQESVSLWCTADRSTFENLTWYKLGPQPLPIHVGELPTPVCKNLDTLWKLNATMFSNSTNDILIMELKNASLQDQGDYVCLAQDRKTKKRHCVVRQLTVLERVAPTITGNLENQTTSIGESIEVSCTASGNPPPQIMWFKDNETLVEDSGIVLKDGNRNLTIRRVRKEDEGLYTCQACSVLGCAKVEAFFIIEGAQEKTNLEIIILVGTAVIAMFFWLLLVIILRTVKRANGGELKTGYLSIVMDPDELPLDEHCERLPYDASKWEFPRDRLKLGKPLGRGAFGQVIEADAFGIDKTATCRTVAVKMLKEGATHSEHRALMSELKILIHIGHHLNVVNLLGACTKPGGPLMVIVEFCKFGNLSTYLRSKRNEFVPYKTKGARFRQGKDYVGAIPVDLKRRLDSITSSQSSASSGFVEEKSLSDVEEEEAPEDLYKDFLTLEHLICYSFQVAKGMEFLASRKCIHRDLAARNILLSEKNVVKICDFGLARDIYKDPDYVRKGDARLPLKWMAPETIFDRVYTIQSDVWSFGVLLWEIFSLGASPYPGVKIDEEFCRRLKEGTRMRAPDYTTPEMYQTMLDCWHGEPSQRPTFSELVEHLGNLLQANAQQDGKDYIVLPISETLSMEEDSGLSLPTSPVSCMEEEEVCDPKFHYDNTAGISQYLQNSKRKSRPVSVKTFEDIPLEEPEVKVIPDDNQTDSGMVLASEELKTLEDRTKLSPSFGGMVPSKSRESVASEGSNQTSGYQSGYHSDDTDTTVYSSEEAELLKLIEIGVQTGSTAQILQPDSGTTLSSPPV

`O=C(O)c1cc(O)c(CS(=O)(=O)Cc2cc(O)c(C(=O)O)cc2O)cc1O` [IIIc-059a, 4-((2,5-Dihydroxy-4-carboxyphenyl)methylsulfonylmethyl)-2,5-dihydroxybenzoic acid]: the IC50 was 47 µM at FGF-1, 50 µM on FGF-2, 3.61 µM on VEGFR-2 and 1 µM with Human neutrophils [1]. Further, in the assay with Human neutrophils [1] (0.3 μM), the inhibition at 0.3 µM amounted to 66.4%. In the assay on Human neutrophils [2], this compound showed a Neutrophil adhesion inhibition of 14.67%.
With `O=C(O)c1ccccc1NC(=O)c1cc(O)cc(C(=O)O)c1O` [IIa-001a, 3-(2-carboxyphenylaminocarbonyl)-2,5-dihydroxybenzoic acid], the IC50 on FGF-1 was 8.6 µM; at FGF-2 it was 11 µM; at VEGFR-2 it was at least 100 µM; in the assay with Human neutrophils [1], 0.408 µM. The compound further registered an inhibition at 0.3 µM in the assay with Human neutrophils [1] (0.3 μM) of 30.5%. In addition, the Neutrophil adhesion inhibition in the assay with Human neutrophils [2] came out at 36.24%.
Take `CCOC(=O)c1cc(O)cc(C(=O)Nc2ccccc2-c2nnn[nH]2)c1O` [IIa-001aTz-E1, ethyl 3-(2-(1H-tetrazol-5-yl)phenylaminocarbonyl)-2,5-dihydroxybenzoate]: the IC50 was at least 200 µM at FGF-1, 42 µM on FGF-2 and at least 100 µM on VEGFR-2. In the assay with Human neutrophils [1] (0.3 μM), testing at 0.3 µM gave an inhibition of 68.9%. This compound displayed a Neutrophil adhesion inhibition in the assay with Human neutrophils [2] of 81.94%.
Consider `O=C(O)c1ccc(NC(=O)c2cc(O)cc(C(=O)O)c2O)cc1` [IIa-003a, 3-(4-carboxyphenylaminocarbonyl)-2,5-dihydroxybenzoic acid], for which the IC50 at FGF-1 came to 22 µM; at FGF-2 it was 13 µM; on VEGFR-2 it was 2.5 µM. Also, at 0.3 µM the inhibition in the assay on Human neutrophils [1] (0.3 μM) was 59.3%. In the assay on Human neutrophils [2], the Neutrophil adhesion inhibition was 35.27%.
`O=C(O)c1cc(NC(=O)c2cc(O)cc(C(=O)O)c2O)ccc1O` [IIa-004a, 3-(3-carboxy-4-hydroxyphenylaminocarbonyl)-2,5-dihydroxybenzoic acid]: the IC50 at FGF-1 was 47 µM; at FGF-2, 33 µM; on VEGFR-2, at least 100 µM; in the assay with Human neutrophils [1], 1 µM. In the assay with Human neutrophils [1] (0.3 μM), this compound gave an inhibition at 0.3 µM of 63.5%. This compound registered a Neutrophil adhesion inhibition in the assay on Human neutrophils [2] of 36%.
As to `O=C(O)c1cc(O)cc(C(=O)Nc2cccc(C(=O)O)c2C(=O)O)c1O` [IIa-011a, 3-(3-carboxy-2,5-dihydroxybenzamido)phthalic acid], the concentration for half-maximal inhibition (IC50) is 141 µM at FGF-1, 123 µM on FGF-2, at least 100 µM on VEGFR-2 and 1.18 µM in the assay with Human neutrophils [1]. In the assay with Human neutrophils [1] (0.3 μM), the inhibition at 0.3 µM was found to be 58.1%. The Neutrophil adhesion inhibition in the assay with Human neutrophils [2] amounted to 26%.
Consider `O=C(O)Cc1cccc(NC(=O)c2cc(O)cc(C(=O)O)c2O)c1` [IIa-033a, 3-(3-(carboxymethyl)phenylaminocarbonyl)-2,5-dihydroxybenzoic acid], for which the IC50 at FGF-1 worked out at 35 µM; at FGF-2 it was 32 µM; on VEGFR-2 it was 4.9 µM; in the assay on Human neutrophils [1], 0.914 µM. Testing at 0.3 µM in the assay on Human neutrophils [1] (0.3 μM) gave an inhibition of 50.6%. For the same compound, the Neutrophil adhesion inhibition in the assay on Human neutrophils [2] was determined as 11.75%.
As to `CCOC(=O)c1cc(O)c(C(=O)Nc2ccc(O)c(C(=O)OC)c2)cc1O` [Ia-004a-E2, ethyl 2,5-dihydroxy-4-(4-hydroxy-3-(methoxycarbonyl)phenylaminocarbonyl)benzoate], the results for the IC50 on FGF-1, at FGF-2 and on VEGFR-2 were 35 µM, 36 µM and 6.1 µM, respectively. This compound also returned an inhibition at 0.3 µM in the assay on Human neutrophils [1] (0.3 μM) of 85.3%. The same compound returned a Neutrophil adhesion inhibition in the assay with Human neutrophils [2] of 97.65%.
As for `O=C(O)Cc1cccc(NC(=O)c2cc(O)c(C(=O)O)cc2O)c1` [Ia-033a, 4-(3-(carboxymethyl)phenylaminocarbonyl)-2,5-dihydroxybenzoic acid], the IC50 on FGF-1 is 60 µM; at FGF-2 it was 165 µM; at VEGFR-2, at least 100 µM; with Human neutrophils [1], 1.32 µM. The compound also returned an inhibition at 0.3 µM in the assay on Human neutrophils [1] (0.3 μM) of 57.7%. Also, the Neutrophil adhesion inhibition with Human neutrophils [2] is on record as 38%.
Consider `CCOC(=O)c1cc(NC(=O)c2cc(OC(C)=O)c(C(=O)OCC)cc2OC(C)=O)cc(NC(=O)c2cc(OC(C)=O)c(C(=O)OCC)cc2OC(C)=O)c1` [Ib-010a-E3-A4, ethyl 3,5-bis(2,5-diacetoxy-4-ethoxycarbonylbenzoylamino)benzoate], for which the IC50 is at least 200 µM at FGF-1, 0.54 µM at VEGFR-2 and 1.49 µM with Human neutrophils [1]. This compound also had an inhibition at 0.3 µM in the assay on Human neutrophils [1] (0.3 μM) of 54.9%. The Neutrophil adhesion inhibition in the assay on Human neutrophils [2] turned out to be 96%.
Turning to `CCOC(=O)c1cc(O)c(-c2nc3c(C(=O)OC)cccc3[nH]2)cc1O` [Id-030a-E2], the IC50 at FGF-1 amounted to 115 µM; at VEGFR-2, 0.33 µM. Besides, the “PMN ROS inhibition at 0.3 μM” value in the assay with Human neutrophils [1] (0.3 μM) stood at 0%. The compound also returned a Neutrophil adhesion inhibition in the assay with Human neutrophils [2] of 43%.
